The values below come from patent US20140066394A1, “Substituted 6-(Benzylamino) Purine Riboside Derivatives, Use Thereof and Compositions Containing These Derivatives” (Biopatterns, S.R.O, priority 2009, published 2014).

Common to all, as to assay type: cell-based
For one assay, the system named is human osteosarcoma HOS. Nature of the assay: In vitro cytotoxicity, Calcein AM assay, HOS. The note with it: Homo sapiens, 72 hours. The source says: Low cytotoxicity of the compounds is the major property determining the cosmetic use. One of the parameters used, as the basis for cytotoxicity assays, is the metabolic activity of viable cells. For example, a microtiter assay, which uses the Calcein AM, is now widely used to quantitate cell proliferation and cytotoxicity. For instance, this assay is used in drug screening programs and in chemosensitivity testing. Because only metabolically active cells cleave Calcein AM, these assays detect viable cells exclusively. The quantity of […] Calcein AM corresponds to the number of vital cells in the culture.
Human T-lymphoblastic leukemia cell line CEM; promyelocytic HL-60 and monocytic U937 leukemias; breast carcinoma cell lines MCF-7, BT549, MDA-MB-231; glioblastoma U87MG cells; cervical carcinoma cells HELA; sarcoma cells U2OS and Saos2; hepatocellular carcinoma HepG2; mouse fibroblasts NIH3T3; mouse immortalized bone marrow macrophages B2.4 and B10A.4; P388D1 and L1210 leukemia; B16 and B16F10 melanomas; human osteosarcoma HOS; human myeloid leukemia K-562; human skin melanoma G-361 were used for routine screening of compounds. The cells were maintained in Nunc/Corning 80 cm^2 plastic tissue culture flasks and cultured in cell culture medium (DMEM with 5 g/l glucose, 2 mM glutamine, 100 U/mL penicillin, 100 μg/mL streptomycin, 10% fetal calf serum and sodium bicarbonate).
The cell suspensions that were prepared and diluted according to the particular cell type and the expected target cell density (2.500-30.000 cells per well based on cell growth characteristics) were added by pipette ([…]) into 96/well microtiter plates. Inoculates were allowed a pre-incubation period of 24 hours at 37° C. and 5% CO2 for stabilisation. Four-fold dilutions of the intended test concentration were added at time zero in 20 μl aliquots to the microtiter plate wells. Usually, the compound tested was evaluated at six 4-fold dilutions. In routine testing, the highest well concentration was 100 μM, but it can be the matter of change dependent on the agent. All drug concentrations were examined in duplicates. Incubations of cells with the tested compounds lasted for 72 hours at 37° C., in 5% CO2 atmosphere and 100% humidity. At the end of the incubation period, the cells were assayed by using Calcein AM. Ten microliters of the stock solution were pipetted into each well and incubated for 1 hour. Fluorescence (FD) was measured with the Labsystem FIA Reader Fluoroscan Ascent (UK). The tumour cell survival (GI50) was calculated using the following equitation: TCS=(FDdrug exposed well/mean FDeontrol wells)×100%. The GI50 value, the drug concentration lethal to 50% of the tumour cells, was calculated from the obtained dose response curves.
Zero cytotoxicity of the novel compounds is the basic prerequisite for agricultural and tumor-unrelated applications. The cytoxicity of the novel compounds was tested on a panel of cell lines of different histogenetic and species origin (Table 9). We show herein that equal activities were found in all tumour cell lines tested, however, the non-malignant cells, e.g. NIH3T3 fibroblasts and normal human lymphocytes, were resistant to 2,6-disubstituted purine ribosides induced cytotoxicity. The compounds listed in Tab. 9 can be divided into 2 groups. The first group contains “classical cytokinins” represented by 6-substituted purine ribosides (which are known in the prior art). The second group contains the novel 2,6-disubstituted derivatives of these compounds. […] GI50 for NIH3T3 fibroblasts and normal human lymphocytes was always higher than 100 μM. The novel derivatives show no toxicity to normal and tumour cells in concentrations about 100 μM and thus are more suitable for agricultural applications than “classical cytokinins” (6-substituted purine riboside derivatives).

Assay [1] deals with neutrophils. Nature of the assay: Neutrophil superoxide generation, lucigenin based assay. As to conditions: Homo sapiens, primed neutrophils, compound 10 minutes prior to fMLP (FIG. 2). Here is the method:
Neutrophils were cultured at 2×10^6 cells/ml in RPMI1640 medium containing human serum antibiotics and 20 ng/ml TNFα for 10 minutes prior to addition of a range of concentrations of compound 10. Generation of superoxide was determined over a 10 minute period using a lucigenin based assay. The area under the curve was calculated to give superoxide generation over the whole assay period.
Anti-inflammatory effects against neutrophils were determined by assessing effects of several of the compounds on neutrophil inflammatory activity (superoxide generation, secretion of chemoattractant IL8 and degranulation to release myeloperoxidase). Neutrophils were isolated from human blood to a purity of greater than 95% and were cultured in RPMI1640 medium containing 2% human AB serum, 2 mM L-glutamine and antibiotics (100 U/ml penicillin, […] streptomycin). Neutrophils were primed for 30 minutes with 50 ng/ml GM-CSF prior to treatment with the bacterial stimulant fMLP (100 ng/ml) and measurement of superoxide generation in a lucigenin based assay (see Pongracz J and Lord J M 1998, Biochem. Biophys. Res. Commun. 247, 624-629) and release of IL8 and myeloperoxidase using an ELISA method. The novel compounds were added to the culture at a range of concentrations (0.1-100 μM) 10 minutes prior to addition of fMLP. […]

Assay [2] has as its system Peripheral blood neutrophils. Nature of the assay: Neutrophil apoptosis, Giemsa stain and light microscopy. As to conditions: Homo sapiens, 20 hours culture, read-out: IC50 of inhibition of neutrophil apoptosis. The procedure: Neutrophils were cultured at 2×10^6 cells/ml for 20 h in RPMI1640 medium containing human serum and antibiotics and a range of concentrations of compound 10. Apoptosis was determined by differential Giemsa staining and light microscopy to determine cells with an apoptotic nuclear morphology. Data are mean±SD of 5 separate experiments.
Effects of the compounds on neutrophil apoptosis were also determined as an indication of utility in diseases where their survival is dysregulated such as systemic vasculitis and chronic inflammatory disease. Peripheral blood neutrophils were cultured for 20 hours in RPMI1640 medium containing 2% human AB serum, 2 mM L-glutamine and antibiotics (100 U/ml penicillin, […] streptomycin) and their apoptosis determined by staining with Giemsa stain and observing an apoptotic morphology by light microscopy (see Pongracz J et al. 1999, J. Biol. Chem. 274: 37329-37334). Compound 10 inhibited neurophil apoptosis with an IC50 of 1 μM (FIG. 4).

Assay [3] relates to neutrophils. Nature of the assay: Neutrophil spreading in Fibronectin. As to conditions: FIG. 8.

Molecules are shown by their SMILES.

A word on the GI50: it is the concentration giving 50% growth inhibition. Usually IC50 stands for the concentration needed to halve the response being measured. `COc1cccc(CNc2nc(Cl)nc3c2ncn3C2OC(CO)C(O)C2O)c1O` (stereo not shown) [Compound 10, 2-Chloro-6-(2-hydroxy-3-methoxybenzylamino)purine riboside]: the 50% growth inhibitory concentration (GI50) with human osteosarcoma HOS was greater than 100 µM. The IC50 with neutrophils [1] was found to be 5 µM; in assay [2] it was 1000 nM. Moreover, the “neutrophil spreading in Fibronectin” value in the assay on neutrophils [3] is on record as “reduces neutrophil spreading”.
